# Measurements as given in paper PMC6968383, “Design, synthesis, in vitro and in vivo evaluation of benzylpiperidine-linked 1,3-dimethylbenzimidazolinones as cholinesterase inhibitors against Alzheimer’s disease” (Journal of Enzyme Inhibition and Medicinal Chemistry, 2019).
# Experiments:
# PC12 cells = test: Neuroprotection against H2O2-induced cell death in PC12 cells; format: cell-based; conditions: PC12 cells pre-treated 24 h, 800 µM H2O2
# Experimental: We evaluated the cytoprotective effects of 15b and 15j on H2O2-induced cell damage. Treatment with 800 µM H2O2 for 24 h caused over 55% death rate of PC12 cells compared with the control group (Supplementary Figure S2(A)).
# Figure S1. (A) The inhibitory effect of 15b and 15j on i Aβ1-42 self-aggregation. (B) […]
# 1.3. Neuroprotection assay against H2O2-induced cell death in PC12 cells Cytotoxicity was determined by using 3-(4,5-dimethylthiazol-2-yl)-2,5-diphenyltetrazoliumbromide (MTT) assay. The PC-12 cell line was purchased from Cell Bank of the Chinese Academy of Sciences (Shanghai, China). MTT was purchased from Sigma (M2128, St. Louis, MO). It was dissolved in phosphate buffered saline (PBS) to a stock concentration of 5 mg mL-1 and stored at - 20 °C. PC-12 cells were plated in 96-well plates, raised to a population of 1 × 10^4 cells per well, and incubated overnight. […]
# Then the solution was removed and 150.0 μL of DMSO was added into each well to dissolve the MTT formazan crystals. […] The absorbance values (OD value) were read at 570 nm by microplate reader (Thermo, Varioskan Flash 3001, USA). The inhibitory rate for each concentration of the test compound was calculated by the equation as follows: […]
# Here, ODtest, ODblank, and ODcontrol stand for the OD value from test compound, background, and DMSO, respectively. The IC50 values were calculated by GraphPad […]
# [1] = system: scopolamine-induced cognition impairment in ICR mice; test: Morris water maze test, scopolamine-induced cognition impairment; format: in vivo; conditions: oral 15 mg kg−1, scopolamine 1 mg kg−1 ip, probe trial on sixth day, mean ± SEM n = 6
# Experimental: The test included 5 days of learning and memory training and a probe trial on the sixth day.
# Scopolamine hydrobromide was supplied by Aladdin Reagents (H1507073, Shanghai, China).
# Cognitive function was evaluated by the Morris water maze analysis-management system (SMART 3.0, Panlab, Madrid, Spain), according to the method previously described[30].The maze was placed in a lit room with visual cues at 25 °C. An escape platform (10 cm diameter) was located in the centre of one quadrant of the circular pool (120 cm diameter, 60 cm height) with a depth of 40 cm water. The behavioural study of each mouse included 5 days of learning and memory training and a probe trial on day 6. The animal starting positions faced to the pool wall, and were pseudorandomised for each trial. For the cognitive evaluation, each mouse was individually evaluated on both visible-platform (days 1–2) and hidden-platform (days 3–5) versions of the water maze. All mice received nonspatial pretraining during the first two training days, which prepared them for the subsequent spatial learning test. During the two days, mice were trained to find the platform that was labelled by a small flag (5 cm tall). The hidden platform version was used to determine the retention of memory to find the platform. During the hidden-platform training trials, the escape platform was placed 1 cm below the surface of the water. On each day, the animal was subjected to two trials, each of which lasted for 90 s. The time for the mouse to find the platform (a successful escape) was recorded. […] On the last day (day 6), the platform was removed from its location and the animals were given a probe trial in which they had 90 s to search for the platform. The time taken to reach the missing platform and the number of times the animals crossed the platform location were recorded.
# Data for the time of escape latency, the trajectory travelled, and the number of platform location crossings were recorded by SMART 3.0, Panlab, Madrid, Spain and processed by GraphPad Prism 6.0.
# [2] = molecular target: T1, BChE (EC 3.1.1.8) from human (Homo sapiens, UniProt P06276); test: human BChE inhibition assay, Ellman's method; format: biochemical; conditions: mean ± SEM, read-out: huBChE IC50
# T1 construct: purchased Sigma-Aldrich
# Experimental: ; The inhibitory activities of the target compounds towards AChE (from Electrophorus electricus (electric eeAChE, Sigma-Aldrich) and horse serum BChE (eqBChE, Sigma-Aldrich) or human AChE – huAChE; human BuChE – huBuChE (huAChE, huBuChE, Sigma-Aldrich) were measured by Ellman’s method. In 96-well plates, a mixture of phosphate buffer (0.1 M, pH 8.0, […]), 5,5′-dithiobis-2-nitrobenzoic acid (DTNB, 60 µL), acetylcholinestrase or butyrylcholinesterase (20 µL, 5 IU/mL) and different concentration of the compound solution (30 µL) was pre-incubated for 5 min followed by the addition of the substrate (acetylthiocholine iodide or butyrylthiocholine iodide, 20 µL). Changes in absorbance were measured at 412 nm by using microplate reader (Thermo, Varioskan Flash 3001, USA). The measurement of each concentration for each compound was detected in triplicate. GraphPad Prism 6.0 (GraphPad Software, Inc., La Jolla, CA) was used for data processing. The inhibition curve was fitted by plotting percentage enzyme activity (100% for the reference) versus the logarithm of the concentration of tested compound. The half-maximal inhibitory concentration (IC50) values were calculated according to the inhibition curve and the data were shown in the layout of mean ± SEM by GraphPad Prism 6.0.
# T1 sequence (P06276 29-602): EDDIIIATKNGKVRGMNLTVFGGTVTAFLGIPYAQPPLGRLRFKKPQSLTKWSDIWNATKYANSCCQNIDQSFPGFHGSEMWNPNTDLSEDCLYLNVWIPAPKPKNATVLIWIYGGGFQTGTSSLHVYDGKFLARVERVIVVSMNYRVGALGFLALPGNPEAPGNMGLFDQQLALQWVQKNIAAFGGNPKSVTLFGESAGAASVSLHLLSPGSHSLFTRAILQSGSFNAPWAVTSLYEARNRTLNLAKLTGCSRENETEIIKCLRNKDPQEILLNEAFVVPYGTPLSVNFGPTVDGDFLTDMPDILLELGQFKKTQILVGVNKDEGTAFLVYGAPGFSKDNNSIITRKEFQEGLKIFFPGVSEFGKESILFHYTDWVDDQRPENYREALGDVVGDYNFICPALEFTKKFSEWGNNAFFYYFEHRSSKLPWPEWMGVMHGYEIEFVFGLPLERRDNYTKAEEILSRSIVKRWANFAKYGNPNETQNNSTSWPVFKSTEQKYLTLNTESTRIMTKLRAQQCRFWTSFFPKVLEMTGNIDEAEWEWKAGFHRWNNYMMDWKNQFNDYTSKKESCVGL
SMILES,cytoprotective effect on H2O2-induced cell damage (PC12 cells),Distance to target [1] [cm],Latency to target [1] [s],IC50 [2] [nM]
"Cc1ccccc1CN1CCC(CNS(=O)(=O)c2ccc3c(c2)n(C)c(=O)n3C)CC1 [Compound 15b, 1,3-dimethyl-N-((1–(2-methylbenzyl)piperidin-4-yl)methyl)-2-oxo-2,3-dihydro-1H-benzo[d]imidazole-5-sulphonamide]",the mortality rate of PC12 cells caused by H2O2 was reduced,252.32 ± 8.42,9.29 ± 0.31,1330 ± 550
"Cn1c(=O)n(C)c2cc(S(=O)(=O)NCC3CCN(Cc4cccc(Br)c4)CC3)ccc21 [Compound 15j, N-((1–(3-bromobenzyl)piperidin-4-yl)methyl)-1,3-dimethyl-2-oxo-2,3-dihydro-1H-benzo[d]imidazole-5-sulphonamide]",the mortality rate of PC12 cells caused by H2O2 was reduced,350.27 ± 16.59,12.85 ± 0.72,660 ± 220
